Assay: wn = mass fraction of the nth substance listed
Details: Gas, Burnett expansion method

F/C=C/C(F)(F)F [trans-1,3,3,3-tetrafluoropropene] + CC(C)C
Details	mass density [kg/m3]
280.17 K, 167.4 kPa, w1 = 0.7	6.7132
280.17 K, 218.3 kPa, w1 = 0.7	8.9087
280.18 K, 165.3 kPa, w1 = 0.65	6.4038
280.18 K, 215.5 kPa, w1 = 0.65	8.4982
280.18 K, 229.9 kPa, w1 = 0.8	10.1496
285.05 K, 159.8 kPa, w1 = 0.8	6.7596
285.06 K, 208.9 kPa, w1 = 0.8	8.9702
285.06 K, 266.4 kPa, w1 = 0.75	11.209
285.06 K, 272 kPa, w1 = 0.8	11.904
285.06 K, 290 kPa, w1 = 0.9	13.8805
285.08 K, 149.5 kPa, w1 = 0.65	5.6292
285.08 K, 195.5 kPa, w1 = 0.65	7.4702
285.08 K, 254.6 kPa, w1 = 0.65	9.9134
285.09 K, 151.9 kPa, w1 = 0.7	5.9363
285.09 K, 198.7 kPa, w1 = 0.7	7.8779
285.09 K, 258.7 kPa, w1 = 0.7	10.4543
290.16 K, 140.3 kPa, w1 = 0.75	5.5569
290.16 K, 183.7 kPa, w1 = 0.75	7.3743
290.16 K, 234.4 kPa, w1 = 0.7	9.1876
290.16 K, 239.9 kPa, w1 = 0.75	9.7861
290.17 K, 153.8 kPa, w1 = 0.9	6.9178
290.17 K, 201.4 kPa, w1 = 0.9	9.1804
290.17 K, 262.6 kPa, w1 = 0.9	12.1828
290.17 K, 304.8 kPa, w1 = 0.7	12.1924
290.17 K, 311.8 kPa, w1 = 0.75	12.9866
290.17 K, 340.7 kPa, w1 = 0.9	16.1673
290.18 K, 176 kPa, w1 = 0.65	6.5292
290.18 K, 179.5 kPa, w1 = 0.7	6.9229
290.18 K, 229.9 kPa, w1 = 0.65	8.6646
290.18 K, 299.2 kPa, w1 = 0.65	11.4985
290.19 K, 148.1 kPa, w1 = 0.85	6.3743
290.19 K, 193.9 kPa, w1 = 0.85	8.459
290.19 K, 252.9 kPa, w1 = 0.85	11.2256
290.19 K, 328.4 kPa, w1 = 0.85	14.8972
290.2 K, 188.8 kPa, w1 = 0.8	7.8842
290.2 K, 246.5 kPa, w1 = 0.8	10.4628
290.2 K, 320.1 kPa, w1 = 0.8	13.8847
295.18 K, 138.3 kPa, w1 = 0.9	6.0742
295.18 K, 181.5 kPa, w1 = 0.9	8.0608
295.18 K, 198.3 kPa, w1 = 0.65	7.2638
295.18 K, 258.7 kPa, w1 = 0.65	9.6394
295.18 K, 308.8 kPa, w1 = 0.9	14.1958
295.18 K, 336.3 kPa, w1 = 0.65	12.7921
295.18 K, 399.6 kPa, w1 = 0.9	18.8389
295.19 K, 151.4 kPa, w1 = 0.65	5.4735
295.19 K, 237.2 kPa, w1 = 0.9	10.6968
295.2 K, 160.8 kPa, w1 = 0.7	6.0421
295.2 K, 173.7 kPa, w1 = 0.85	7.366
295.2 K, 210.4 kPa, w1 = 0.7	8.0182
295.2 K, 227.4 kPa, w1 = 0.85	9.7751
295.2 K, 274.6 kPa, w1 = 0.7	10.6407
295.2 K, 296.4 kPa, w1 = 0.85	12.9722
295.2 K, 356.2 kPa, w1 = 0.7	14.1209
295.2 K, 384.1 kPa, w1 = 0.85	17.2147
295.21 K, 165.5 kPa, w1 = 0.75	6.4713
295.21 K, 216.7 kPa, w1 = 0.75	8.5879
295.21 K, 282.6 kPa, w1 = 0.75	11.3966
295.21 K, 366.4 kPa, w1 = 0.75	15.1241
295.22 K, 169.2 kPa, w1 = 0.8	6.8878
295.22 K, 221.5 kPa, w1 = 0.8	9.1405
295.22 K, 288.6 kPa, w1 = 0.8	12.13
295.22 K, 374 kPa, w1 = 0.8	16.0973
300.14 K, 198.5 kPa, w1 = 0.8	7.9893
300.14 K, 259.5 kPa, w1 = 0.8	10.6023
300.14 K, 337.5 kPa, w1 = 0.8	14.0697
300.16 K, 151.4 kPa, w1 = 0.8	6.02
300.16 K, 156.6 kPa, w1 = 0.85	6.5188
300.16 K, 205.4 kPa, w1 = 0.85	8.6508
300.16 K, 268.4 kPa, w1 = 0.85	11.4801
300.16 K, 348.9 kPa, w1 = 0.85	15.2347
300.16 K, 448.5 kPa, w1 = 0.85	20.2174
300.17 K, 466.4 kPa, w1 = 0.9	21.9125
300.18 K, 162.8 kPa, w1 = 0.9	7.0652
300.18 K, 213.3 kPa, w1 = 0.9	9.3759
300.18 K, 278.5 kPa, w1 = 0.9	12.4424
300.18 K, 361.8 kPa, w1 = 0.9	16.5116
300.19 K, 141.1 kPa, w1 = 0.65	4.9939
300.19 K, 147.4 kPa, w1 = 0.75	5.6247
300.19 K, 185.2 kPa, w1 = 0.65	6.6273
300.19 K, 193.2 kPa, w1 = 0.75	7.4643
300.19 K, 242.2 kPa, w1 = 0.65	8.7948
300.19 K, 252.7 kPa, w1 = 0.75	9.9055
300.19 K, 315.5 kPa, w1 = 0.65	11.6712
300.19 K, 328.9 kPa, w1 = 0.75	13.1452
300.19 K, 408.2 kPa, w1 = 0.65	15.4884
300.19 K, 425.4 kPa, w1 = 0.75	17.4445
300.21 K, 143.9 kPa, w1 = 0.7	5.2837
300.21 K, 188.7 kPa, w1 = 0.7	7.0118
300.21 K, 246.8 kPa, w1 = 0.7	9.3051
300.21 K, 321.3 kPa, w1 = 0.7	12.3484
300.21 K, 415.8 kPa, w1 = 0.7	16.3872
305.17 K, 185.5 kPa, w1 = 0.8	7.2959
305.17 K, 243 kPa, w1 = 0.8	9.6822
305.17 K, 316.9 kPa, w1 = 0.8	12.8488
305.17 K, 410.9 kPa, w1 = 0.8	17.0511
305.18 K, 145.2 kPa, w1 = 0.85	5.912
305.18 K, 169.9 kPa, w1 = 0.7	6.1677
305.18 K, 189.6 kPa, w1 = 0.85	7.8456
305.18 K, 249.6 kPa, w1 = 0.85	10.4115
305.18 K, 290.8 kPa, w1 = 0.7	10.8618
305.18 K, 325.5 kPa, w1 = 0.85	13.8167
305.18 K, 377.9 kPa, w1 = 0.7	14.4143
305.18 K, 420.8 kPa, w1 = 0.85	18.3356
305.18 K, 536.7 kPa, w1 = 0.85	24.3325
305.19 K, 181.1 kPa, w1 = 0.75	6.8373
305.19 K, 222.7 kPa, w1 = 0.7	8.1848
305.19 K, 237.2 kPa, w1 = 0.75	9.0735
305.19 K, 401.5 kPa, w1 = 0.75	15.9791
305.19 K, 487 kPa, w1 = 0.7	19.1285
305.2 K, 162.4 kPa, w1 = 0.65	5.6789
305.2 K, 212.9 kPa, w1 = 0.65	7.5363
305.2 K, 278.3 kPa, w1 = 0.65	10.001
305.2 K, 309.5 kPa, w1 = 0.75	12.0406
305.2 K, 361.8 kPa, w1 = 0.65	13.2721
305.2 K, 465.9 kPa, w1 = 0.65	17.6129
305.21 K, 150 kPa, w1 = 0.9	6.375
305.21 K, 196.9 kPa, w1 = 0.9	8.4599
305.21 K, 257.6 kPa, w1 = 0.9	11.2269
305.21 K, 335.6 kPa, w1 = 0.9	14.8987
305.21 K, 434.3 kPa, w1 = 0.9	19.7715
305.21 K, 557 kPa, w1 = 0.9	26.2379
310.09 K, 153.4 kPa, w1 = 0.7	5.4721
310.09 K, 569.4 kPa, w1 = 0.7	22.5217
310.1 K, 157.4 kPa, w1 = 0.8	6.0902
310.1 K, 201.9 kPa, w1 = 0.7	7.2614
310.1 K, 207.9 kPa, w1 = 0.8	8.082
310.1 K, 271.8 kPa, w1 = 0.75	10.3201
310.1 K, 272 kPa, w1 = 0.8	10.7254
310.1 K, 344.7 kPa, w1 = 0.7	12.7882
310.1 K, 354.2 kPa, w1 = 0.75	13.6955
310.1 K, 354.6 kPa, w1 = 0.8	14.233
310.1 K, 458.2 kPa, w1 = 0.8	18.8881
310.1 K, 459.6 kPa, w1 = 0.75	18.1746
310.1 K, 583 kPa, w1 = 0.75	24.1187
310.1 K, 583.3 kPa, w1 = 0.8	25.0653
310.11 K, 158.1 kPa, w1 = 0.75	5.86
310.11 K, 207.6 kPa, w1 = 0.75	7.7765
310.11 K, 446.6 kPa, w1 = 0.7	16.9702
310.12 K, 264.5 kPa, w1 = 0.7	9.6359
310.12 K, 493.5 kPa, w1 = 0.9	22.3926
310.13 K, 166 kPa, w1 = 0.85	6.6824
310.13 K, 172 kPa, w1 = 0.9	7.22
310.13 K, 225.6 kPa, w1 = 0.9	9.5815
310.13 K, 294.9 kPa, w1 = 0.9	12.7151
310.13 K, 337.1 kPa, w1 = 0.65	12.0235
310.13 K, 372.9 kPa, w1 = 0.85	15.6171
310.13 K, 383.7 kPa, w1 = 0.9	16.8736
310.13 K, 436.3 kPa, w1 = 0.65	15.9559
310.13 K, 556 kPa, w1 = 0.65	21.1744
310.13 K, 607.5 kPa, w1 = 0.85	27.5031
310.14 K, 196.8 kPa, w1 = 0.65	6.8271
310.14 K, 216.8 kPa, w1 = 0.85	8.8678
310.14 K, 258.2 kPa, w1 = 0.65	9.0598
310.14 K, 285 kPa, w1 = 0.85	11.7678
310.14 K, 479.8 kPa, w1 = 0.85	20.7246
310.15 K, 149.8 kPa, w1 = 0.65	5.1443

— the NIST ThermoML archive (doi:10.1016/j.jct.2017.03.032)
